Test results as given in patent US20100285959A1, “HERBICIDAL MIXTURES” (priority 2006, published 2010).

Key:
[1] = system: giant foxtail (SETFA); experiment: Test 26 field trial, postemergence; assay type: in vivo, Setaria faberi; parameters: scale not given here
Source text: (§1) Corn seeds (hybrid ‘Pioneer 31G96’) were planted in mid spring season, 3.8 cm deep in a silt loam soil having 2% organic matter and a pH of 6.6. Plots were 6.1 m long by 3.0 m wide with rows spaced 76 cm apart. Seeds were spaced 15 cm apart within the rows. The field was managed using conventional tillage practices. […] All treatments also included a surfactant. […] Some of the weed species could not be evaluated at every timing. […] Results are the means of the three replicates.

[2] = system: winter wheat (TRZAW); experiment: Test 27 field trial, postemergence; assay type: in vivo, Triticum aestivum; settings: cv. Custer, Triticum aestivum (winter wheat), in vivo
Source text: (§2) Wheat seeds (cv. ‘Custer’) were planted in late fall season in a clay loam soil. Plots were 9 m long by 1.8 m wide. The field was managed using conventional tillage practices. […] All treatments also included a surfactant. […] Results are the means of the three replicates.

[3] = system: giant ragweed (AMBTR); experiment: Test 26 field trial, postemergence; assay type: in vivo, Ambrosia trifida
Source text: as §1

[4] = system: kochia (KCHSC); experiment: Test 27 field trial, postemergence; assay type: in vivo, Kochia scoparia; parameters: scale not given here; settings: thifensulfuron-methyl 10 g a.i./ha
Source text: as §2

[5] = system: corn (ZEAMD); experiment: Test 26 field trial, postemergence; assay type: in vivo, Zea mays ssp. indentata; settings: hybrid Pioneer 31G96, Zea mays ssp. indentata (corn), in vivo
Source text: as §1

[6] = system: velvetleaf (ABUTH); experiment: Test 26 field trial, postemergence; assay type: in vivo, Abutilon theophrasti; parameters: scale not given here
Source text: as §1

[7] = system: Pennsylvania smartweed (POLPY); experiment: Test 26 field trial, postemergence; assay type: in vivo, Polygonum pensylvanicum
Source text: as §1

[8] = system: ivyleaf morningglory (IPOHE); experiment: Test 26 field trial, postemergence; assay type: in vivo, Ipomoea hederacea; parameters: scale not given here
Source text: as §1

[9] = system: common ragweed (AMBEL); experiment: Test 26 field trial, postemergence; assay type: in vivo, Ambrosia artemisiifolia; parameters: scale not given here
Source text: as §1

[10] = system: common lambsquarters (CHEAL); experiment: Test 26 field trial, postemergence; assay type: in vivo, Chenopodium album; parameters: scale not given here
Source text: as §1

[11] = system: jimsonweed (DATST); experiment: Test 26 field trial, postemergence; assay type: in vivo, Datura stramonium; settings: 28 DAA
Source text: as §1

[12] = system: field pennycress (THLAR); experiment: Test 4 field trial, postemergence; assay type: in vivo, Thlaspi arvense; parameters: scale not given here; settings: clodinafop 56 or fenoxaprop 90 g a.i./ha alone
Method: (§3) A field trial was conducted to evaluate the effects of mixtures of Compound 2 with commercial herbicides on spring wheat (TRZAS, Triticum aestivum L.) and several weed species. Wheat seeds (cv. ‘AC Intrepid’) were planted in late spring season, 3.8 cm deep in a loam soil having 2.7% organic matter and a pH of 7. Plots were 6 m long by 2.5 m wide. The field was managed using no-till practices. The plots were arranged in a randomized complete block design with each treatment being replicated four times. Treatments were applied postemergence 25 days after planting using a backpack sprayer delivering a spray volume of 55 L/ha using a pressure of 276 kPa. […] Compound 2 and clodinafop treatments, alone and in combination, also included a surfactant. Weed species present in the experimental plots in sufficient quantity to be evaluated included wild oat (AVEFA, Avena fatua L.), common lambsquarters (CHEAL, Chenopodium album L.), kochia (KCHSC, Kochia scoparia (L.) Schrad.), wild buckwheat (POLCO, Polygonum convolvulus L.), Russian thistle (SASKR, Salsola kali L. ssp. ruthenica (Iljin) Soo), and field pennycress (THLAR, Thlaspi arvense L.). […] Common lambsquarters was evaluated only at 14 days after application. […] Results are the means of the four replicates.

[13] = system: wild oat (AVEFA); experiment: Test 4 field trial, postemergence; assay type: in vivo, Avena fatua; parameters: scale not given here; settings: clodinafop 56 or fenoxaprop 90 g a.i./ha alone
Method: as §3

[14] = system: common lambsquarters (CHEAL); experiment: Test 4 field trial, postemergence; assay type: in vivo, Chenopodium album; settings: clodinafop 56 or fenoxaprop 90 g a.i./ha alone
[15] = system: spring wheat (TRZAS); experiment: Test 4 field trial, postemergence; settings: clodinafop 56 or fenoxaprop 90 g a.i./ha alone
Method: as §3

[16] = system: Russian thistle (SASKR); experiment: Test 4 field trial, postemergence; assay type: in vivo, Salsola kali; parameters: scale not given here; settings: clodinafop 56 or fenoxaprop 90 g a.i./ha alone
Method: as §3

[17] = system: wild buckwheat (POLCO); experiment: Test 4 field trial, postemergence; assay type: in vivo, Polygonum convolvulus; settings: clodinafop 56 or fenoxaprop 90 g a.i./ha alone
Method: as §3

[18] = system: kochia (KCHSC); experiment: Test 4 field trial, postemergence; assay type: in vivo, Kochia scoparia; settings: clodinafop 56 g a.i./ha alone
Method: as §3

COC(=O)c1sccc1S(=O)(=O)NC(=O)Nc1nc(C)nc(OC)n1 [Thifensulfuron-methyl] was tested, and the “SETFA Obs” value ([1]; 28 DAA, 2 g a.i./ha) was 87, the “SETFA Obs” value ([1]; 28 DAA, 4 g a.i./ha) was 88 and the “SETFA Obs” value ([1]; 28 DAA, 8 g a.i./ha) was 82. For the same compound, the “SETFA Obs” value ([1]; 56 DAA, 2 g a.i./ha) was 0, the “SETFA Obs” value ([1]; 56 DAA, 4 g a.i./ha) was 23 and the “SETFA Obs” value ([1]; 56 DAA, 8 g a.i./ha) was 13. The “TRZAW Obs” value ([2]; 16 days after application) was 0, the “TRZAW Obs” value ([2]; 28 days after application) was 0 and the “TRZAW Obs” value ([2]; 49 days after application) was 0. For the same compound, the “AMBTR Obs” value ([3]; 14 DAA, 2 g a.i./ha) was 75, the “AMBTR Obs” value ([3]; 28 DAA, 2 g a.i./ha) was 5 and the “AMBTR Obs” value ([3]; 28 DAA, 4 g a.i./ha) was 5. For the same compound, the “KCHSC Obs” value ([4]; 16 DAA) was 0, the “KCHSC Obs” value ([4]; 28 DAA) was 0 and the “KCHSC Obs” value ([4]; 49 DAA) was 0. The “ZEAMD Obs” value ([5]; 14 days after application) was 0, the “ZEAMD Obs” value ([5]; 56 days after application) was 0 and the “ABUTH Obs” value ([6]; 14 DAA, 2 g a.i./ha) was 53. For the same compound, the “ABUTH Obs” value ([6]; 14 DAA, 4 g a.i./ha) was 60, the “ABUTH Obs” value ([6]; 14 DAA, 8 g a.i./ha) was 55 and the “ABUTH Obs” value ([6]; 28 DAA, 2 g a.i./ha) was 75. The “ABUTH Obs” value ([6]; 28 DAA, 4 g a.i./ha) was 79, the “ABUTH Obs” value ([6]; 28 DAA, 8 g a.i./ha) was 87 and the “ABUTH Obs” value ([6]; 56 DAA, 2 g a.i./ha) was 33. The “ABUTH Obs” value ([6]; 56 DAA, 4 g a.i./ha) was 30, the “ABUTH Obs” value ([6]; 56 DAA, 8 g a.i./ha) was 73 and the “POLPY Obs” value ([7]; 14 DAA, 8 g a.i./ha) was 0. The “POLPY Obs” value ([7]; 28 DAA, 2 g a.i./ha) was 73, the “POLPY Obs” value ([7]; 28 DAA, 4 g a.i./ha) was 100 and the “POLPY Obs” value ([7]; 28 DAA, 8 g a.i./ha) was 100. The “IPOHE Obs” value ([8]; 14 DAA, 2 g a.i./ha) was 57, the “IPOHE Obs” value ([8]; 14 DAA, 4 g a.i./ha) was 72 and the “IPOHE Obs” value ([8]; 14 DAA, 8 g a.i./ha) was 73. The “IPOHE Obs” value ([8]; 28 DAA, 2 g a.i./ha) was 17, the “IPOHE Obs” value ([8]; 28 DAA, 4 g a.i./ha) was 20 and the “IPOHE Obs” value ([8]; 28 DAA, 8 g a.i./ha) was 45. The “IPOHE Obs” value ([8]; 56 DAA, 2 g a.i./ha) was 0, the “IPOHE Obs” value ([8]; 56 DAA, 4 g a.i./ha) was 0 and the “IPOHE Obs” value ([8]; 56 DAA, 8 g a.i./ha) was 20. For the same compound, the “AMBEL Obs” value ([9]; 14 DAA, 2 g a.i./ha) was 55, the “AMBEL Obs” value ([9]; 14 DAA, 4 g a.i./ha) was 72 and the “AMBEL Obs” value ([9]; 14 DAA, 8 g a.i./ha) was 76. For the same compound, the “AMBEL Obs” value ([9]; 28 DAA, 2 g a.i./ha) was 23, the “AMBEL Obs” value ([9]; 28 DAA, 4 g a.i./ha) was 53 and the “AMBEL Obs” value ([9]; 28 DAA, 8 g a.i./ha) was 43. For the same compound, the “AMBEL Obs” value ([9]; 56 DAA, 2 g a.i./ha) was 0, the “AMBEL Obs” value ([9]; 56 DAA, 4 g a.i./ha) was 17 and the “AMBEL Obs” value ([9]; 56 DAA, 8 g a.i./ha) was 25. For the same compound, the “CHEAL Obs” value ([10]; 14 DAA, 2 g a.i./ha) was 65, the “CHEAL Obs” value ([10]; 14 DAA, 4 g a.i./ha) was 83 and the “CHEAL Obs” value ([10]; 14 DAA, 8 g a.i./ha) was 80. The “CHEAL Obs” value ([10]; 28 DAA, 2 g a.i./ha) was 90, the “CHEAL Obs” value ([10]; 28 DAA, 4 g a.i./ha) was 93 and the “CHEAL Obs” value ([10]; 28 DAA, 8 g a.i./ha) was 98. For the same compound, the “CHEAL Obs” value ([10]; 56 DAA, 2 g a.i./ha) was 27, the “CHEAL Obs” value ([10]; 56 DAA, 4 g a.i./ha) was 50 and the “CHEAL Obs” value ([10]; 56 DAA, 8 g a.i./ha) was 93. For the same compound, the “DATST Obs” value ([11]; 2 g a.i./ha) was 40, the “DATST Obs” value ([11]; 4 g a.i./ha) was 87 and the “DATST Obs” value ([11]; 8 g a.i./ha) was 83.

In the case of C[C@@H](Oc1ccc(Oc2ncc(Cl)cc2F)cc1)C(=O)O [Clodinafop], the “THLAR Obs” value ([12]; 14 DAA) is reported as 0, the “THLAR Obs” value ([12]; 35 DAA) is reported as 0 and the “AVEFA Obs” value ([13]; 14 DAA) is reported as 97. The “AVEFA Obs” value ([13]; 35 DAA) was 99, the “AVEFA Obs” value ([13]; 55 DAA) was 98 and the “CHEAL Obs” value ([14]; 14 DAA) was 0. For the same compound, the “CHEAL Obs” value ([14]; 35 DAA) was 0, the “TRZAS Obs” value ([15]; 14 DAA) was 0 and the “TRZAS Obs” value ([15]; 35 DAA) was 0. The “TRZAS Obs” value ([15]; 55 DAA) was 0, the “SASKR Obs” value ([16]; 14 DAA) was 0 and the “SASKR Obs” value ([16]; 35 DAA) was 0. For the same compound, the “POLCO Obs” value ([17]; 14 DAA) was 0, the “POLCO Obs” value ([17]; 35 DAA) was 0 and the “KCHSC Obs” value ([18]; 14 DAA) was 0. The “KCHSC Obs” value ([18]; 35 DAA) was 0.
